Patent US20100113484A1, “TREATING AGENT OF UROPATHY” (ASKA PHARMACEUTICAL CO., LTD., priority 2006, published 2010)
Read-outs that look alike come from different tables or passages of the source.

Columns and labels:
[1] = biological target: T1, human recombinant PDE9 protein (Homo sapiens, UniProt O76083); experiment: Measurement of PDE9-inhibiting activity ([3H]-cGMP hydrolysis); format: biochemical
T1 construct: made in house; host or cells: COS-1 cells, transient transfection with pcDNA 3.1 (+); supernatant of the homogenate, not purified
T1 sequence (O76083 whole entry): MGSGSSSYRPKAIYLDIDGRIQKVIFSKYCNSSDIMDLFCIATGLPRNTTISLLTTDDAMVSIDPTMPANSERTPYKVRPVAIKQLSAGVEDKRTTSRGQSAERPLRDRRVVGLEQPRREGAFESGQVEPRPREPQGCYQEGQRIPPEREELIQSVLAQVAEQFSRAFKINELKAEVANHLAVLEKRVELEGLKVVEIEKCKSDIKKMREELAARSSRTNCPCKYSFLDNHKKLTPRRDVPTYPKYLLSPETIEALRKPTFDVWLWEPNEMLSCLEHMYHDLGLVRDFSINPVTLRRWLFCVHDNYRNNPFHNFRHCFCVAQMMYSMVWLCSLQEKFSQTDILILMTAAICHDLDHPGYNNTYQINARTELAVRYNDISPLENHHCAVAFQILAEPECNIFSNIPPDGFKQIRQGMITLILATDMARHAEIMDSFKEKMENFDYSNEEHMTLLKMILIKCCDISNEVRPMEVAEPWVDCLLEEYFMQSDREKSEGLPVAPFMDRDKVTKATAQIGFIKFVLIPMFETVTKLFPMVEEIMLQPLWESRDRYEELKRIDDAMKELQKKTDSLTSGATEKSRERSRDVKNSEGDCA
Method: Based on the base sequence of hsPDE9A1 registered with GenBank database (accession No.: AF048837), hsPDE9A1 fragment was amplified by polymerase chain reaction under the following conditions, using the following sequence (Amasham Pharmacia Biotech) as the primer and Human Prostate […] cDNA library (CLONTECH) as the template DNA, with Pfu Turbo DNA polymerase ([…]):
PCR condition: [95° C., 5 min]×1 cycle, [(95° C., 1 min), (58° C., 2 min), (72° C., 3 min)]×25 cycles, [72° C., 10 min]×1 cycle
Thus obtained hsPDE9A1 fragment was given a restricted enzymatic treatment with NheI and NotI, and thereafter inserted into pcDNA 3.1 (+) expression vector (Invitrogen) to let it serve as a human PDE9 expression vector.
(§1) Human PDE9 expression vector-transformed Escherichia coli was mass incubated to produce a large amount of human PDE9 expression vector, which was transiently transfected into COS-1 cells, with LIPOFECTAMINE 2000 Reagent (GIBCO). The cells were homogenized in ice-cooled buffer A (40 mmol/L Tris-HCl, pH7.5, 15 mmol/L benzamidine, 15 mmol/L 2-mercaptoethanol, 1 μg/mL Pepstatin A, 1 μg/mL Leupeptin, 5 mmol/L EDTA) and centrifuged at 4° C., 14,000×g for 10 minutes. The supernatant was isolated to provide human recombinant PDE9 protein solution.
This mixed solution was incubated at 30° C. for 30 minutes and the enzymatic reaction of PDE9 was terminated by heating the system in boiling water for 90 seconds. Returning the system to room temperature, 50 μL of Snake venom (SIGMA: 1 mg/mL) was added, followed by 10 minutes' incubation at 30° C., to convert the [^3H]-5′-GMP produced in the previous reaction to [^3H]-guanosine. […] Thereafter [^3H]-guanosine was eluted with 3 mL of 3 mol/L aqueous ammonia and its radiation activity was measured with liquid scintillation counter.
PDE9 inhibition of the tested compound can be calculated by the following formula: […]
From the percent inhibition at various concentration levels of each tested compound, its IC50 value against PDE9 can be determined.

[2] = biological target: T2, human recombinant PDE5 protein (Homo sapiens, UniProt O76074); experiment: Measurement of PDE5-inhibiting activity; format: biochemical
T2 construct: made in house; host or cells: COS-1 cells, transient transfection with pcDNA 3.1 (+); supernatant of the homogenate, not purified
Method: PCR condition: [94° C., 2 min]×1 cycle, [(94° C., 30 sec), (65° C., 30 sec), (68° C., 3 min)]×25 cycles, [68° C., 6 min]×1 cycle
Thus obtained hsPDE5A1 fragment was given a restricted enzymatic treatment with XBaI and EcoRI, and thereafter inserted into pcDNA 3.1 (+) expression vector (Invitrogen) to let it serve as a human PDE5 expression vector.
as §1, with “PDE5” for “PDE9”, “A” for “A (40 mmol/L Tris-HCl, pH7.5, 15 mmol/L benzamidine, 15 mmol/L 2-mercaptoethanol, 1 μg/mL Pepstatin A, 1 μg/mL Leupeptin, 5 mmol/L EDTA)”

[3] = system: partial urethra obstruction model in guinea pigs; experiment: Dysuria pathological model: partial urethra obstruction model, cystometry; format: in vivo, Hartley female guinea pigs; conditions: guinea pig, i.v.
Method: Three-four weeks old Hartley female guinea pigs (Japan SLC, Inc.) were given celiotomy under anesthesia with pentobarbital (30 mg/kg i.p.) and in their urethra to the peripheral side by 1-2 mm from the bladder neck, each a polyethylene tube of 1.4 mm in width and 2.0 mm in inner diameter was placed. After closing the wound, the guinea pigs were bred for at least 3 weeks to produce partial urethra obstruction model in guinea pigs in which occurrence of intravesical pressure rise not accompanied by micturition (uninhibited contraction) and residual urine were observed.
The model was catheterized under anesthesia with urethane (1 g/kg i.p.) at the apex of urinary bladder and right jugular vein for cystometrography and intravenous administration, respectively. The other end of the bladder catheter was connected to a pressure transducer and infusion pump via a three way stop-cock, and physiological saline was continuously infused into the bladder through the infusion pump at a rate of 0.4 mL/min to induce micturition reflex. Immediately after the micturition reflex was induced, infusion of physiological saline into the bladder was stopped. The intravesical pressure at the time the micturition reflex was induced was measured with the pressure transducer, and the obtained cystometrogram was recorded with pen recorder. The urine voided was collected with disposable type weighing dish and its weight was measured. Further the physiological saline remained in the bladder was sucked with syringe via the bladder catheter and the residual urine volume was measured. The operations of suspending the infusion of physiological saline upon induction of micturition reflex, and about 1 minute thereafter resuming the infusion of physiological saline to induce micturition reflex were repeated plural times (generally 4 times) to stabilize the micturition reflex.
After stabilizing the micturition reflex, a compound solution (prepared by dissolving the compound or methanesulfonic acid salt thereof in DMSO and diluting it with physiological saline or distilled water) or physiological saline was administered into the vein at a volume of 10 mL/kg over 4 minutes, and simultaneously the above-described micturition reflex operations were repeated until 30 minutes passed after initiation of the administration, while measuring the intravesical pressure and the volumes of micturition and residual urine. Also the frequency of uninhibited contraction occurrence during the above-described operations was recorded.

[4] = Tables A and C, read-out: Inhibiting Activity (IC50 value) PDE9
[5] = Tables A and C, read-out: Inhibiting Activity (IC50 value) PDE5
[6] = Table B, read-out: Inhibiting Activity IC50 PDE9
[7] = Table B, read-out: Inhibiting Activity IC50 PDE5

Structure (SMILES)	IC50 [1, 4] [nM]	IC50 [2, 5] [nM]	also measured
Cc1c(C(=O)O)sc2nc(Cc3cccs3)[nH]c(=O)c12 [A-2, 5-Methyl-4-oxo-2-(thiophen-2-ylmethyl)-3,4-dihydrothieno-[2,3-d]pyrimidine-6-carboxylic acid]	40	21100	Frequency of occurrence of uninhibited contraction after administration ([3]; 1 mg/kg): 0.47 times/min; Frequency of occurrence of uninhibited contraction volume change ([3]; 1 mg/kg): −0.44 times/min; Residual urine volume after administration ([3]; 1 mg/kg): 1.23 mL; Residual urine volume volume change ([3]; 1 mg/kg): -0.04 mL; Frequency of occurrence of uninhibited contraction after administration ([3]; 10 mg/kg): 0.78 times/min; Frequency of occurrence of uninhibited contraction volume change ([3]; 10 mg/kg): −0.13 times/min; Residual urine volume after administration ([3]; 10 mg/kg): 1.02 mL; Residual urine volume volume change ([3]; 10 mg/kg): -0.25 mL
Cc1c(C(=O)O)sc2nc(Cc3ccccc3)[nH]c(=S)c12 [A-24, 2-Benzyl-5-methyl-4-thioxo-3,4-dihydrothieno[2,3-d]-pyrimidine-6-carboxylic acid]	13	642	–
Cc1c(C(=O)O)sc2nc(Cc3cccc(Br)c3)[nH]c(=S)c12 [A-25, 2-(3-Bromobenzyl)-5-methyl-4-thioxo-3,4-dihydrothieno-[2,3-d]pyrimidine-6-carboxylic acid]	11	712	–
Cc1c(C(=O)O)sc2nc(Cc3cccc(C(F)(F)F)c3)[nH]c(=S)c12 [A-27, 5-Methyl-4-thioxo-2-(3-trifluoromethylbenzyl)-3,4-dihydrothieno[2,3-d]pyrimidine-6-carboxylic acid]	6	3510	–
Cc1c(C(=O)O)sc2nc(Cc3ccc(Cl)c(Cl)c3)[nH]c(=S)c12 [A-28, 2-(3,4-Dichlorobenzyl)-5-methyl-4-thioxo-3,4-dihydrothieno-[2,3-d]pyrimidine-6-carboxylic acid]	4	73	–
Cc1c(C(=O)O)sc2nc(Cc3ccc(F)c(Cl)c3)[nH]c(=S)c12 [A-29, 2-(3-Chloro-4-fluorobenzyl)-5-methyl-4-thioxo-3,4-dihydrothieno[2,3-d]pyrimidine-6-carboxylic acid]	7	495	–
Cc1c(C(=O)O)sc2nc(CC3=CCCCC3)[nH]c(=S)c12 [A-30, 2-(Cyclohex-1-enylmethyl)-5-methyl-4-thioxo-3,4-dihydrothieno[2,3-d]pyrimidine-6-carboxylic acid]	48	70	–
O=C(O)c1cc2c(=S)[nH]c(Cc3ccccc3)nc2s1 [A-32, 2-Benzyl-4-thioxo-3,4-dihydrothieno[2,3-d]pyrimidine-6-carboxylic acid]	11	8870	–
O=C(O)c1cc2c(=S)[nH]c(Cc3ccc(Cl)c(Cl)c3)nc2s1 [A-33, 2-(3,4-Dichlorobenzyl)-4-thioxo-3,4-dihydrothieno[2,3-d]-pyrimidine-6-carboxylic acid]	5	721	–
Cc1c(C(=O)O)sc2nc(Cc3ccccc3)[nH]c(=O)c12 [A-34]	35	10000	–
O=C(O)c1ccc2c(=O)[nH]c(Cc3cccc(Cl)c3)nc2c1 [B-1, 2-(3-Chlorobenzyl)-4-oxo-3,4-dihydroquinazoline-7-carboxylic acid]	–	–	IC50 [1, 6]: 18 nM; IC50 [2, 7]: 6210 nM
O=C(O)c1ccc2c(=O)[nH]c(Cc3ccc(Cl)c(Cl)c3)nc2c1 [B-2, 2-(3,4-Dichlorobenzyl)-4-oxo-3,4-dihydroquinazoline-7-carboxylic acid]	–	–	IC50 [1, 6]: 35 nM; IC50 [2, 7]: 1440 nM
CC(C)c1ncc2c(=O)[nH]c3cc(Cl)ccc3n12 [C-1, 7-Chloro-1-isopropylimidazo[1,5-a]quinoxalin-4 (5H)-one]	10	1260	–
CC(C)c1ncc2c(=O)[nH]c3cc(C(=O)N(C)C)ccc3n12 [C-2, 1-Isopropyl-N,N-dimethyl-4-oxo-4,5-dihydroimidazo[1,5-a]-quinoxaline-7-carboxamide]	42	> 10000	–
COc1cc2c(cc1C(=O)N(C)C)[nH]c(=O)c1cnc(C3CCCCC3)n12 [C-3, 1-Cyclohexyl-8-methoxy-N,N-dimethyl-4-oxo-4,5-dihydro-imidazo[1,5-a]quinoxaline-7-carboxamide]	1.2	> 10000	–
CCOc1cc2c(cc1C(=O)N(C)C)[nH]c(=O)c1cnc(C3CCCCC3)n12 [C-4]	3.4	> 10000	–
CN(C)C(=O)c1cc2[nH]c(=O)c3cnc(C4CCCCC4)n3c2cc1Cl [C-5, 8-Chloro-1-cyclohexyl-N,N-dimethyl-4-oxo-4,5-dihydroimidazo-[1,5-a]quinoxaline-7-carboxamide]	3	> 10000	–
O=C(c1cc2[nH]c(=O)c3cnc(C4CCCCC4)n3c2cc1Cl)N1CCN(CCO)CC1 [C-6, 1-[(8-Chloro-1-cyclohexyl-4-oxo-4,5-dihydroimidazo[1,5-a]-quinoxalin-7-yl)carbonyl]-4-(2-hydroxyethyl)piperazine]	8	7540	–
CCc1ccc2c(c1)[nH]c(=O)c1cnc(CCC(=O)O)n12 [C-7, 3-(7-Ethyl-4-oxo-4,5-dihydroimidazo[1,5-a]quinoxalin-1-yl)-propionic acid]	2	> 10000	–
O=C(O)CCc1ncc2c(=O)[nH]c3cc(C(F)(F)F)ccc3n12 [C-8, 3-(4-Oxo-7-trifluoromethyl-4,5-dihydroimidazo[1,5-a]-quinoxalin-1-yl)propionic acid]	2	6370	–
O=C(O)CCc1ncc2c(=O)[nH]c3cc(Br)ccc3n12 [C-9, 3-(7-Bromo-4-oxo-4,5-dihydroimidazo[1,5-a]quinoxalin-1-yl)-propionic acid]	3	2810	–
O=C(O)/C=C/c1ccc2c(=O)[nH]c3cc(C(F)(F)F)ccc3n12 [C-10, (E)-3-(4-oxo-7-trifluoromethyl-4,5-dihydropyrrolo[1,2-a]-quinoxalin-1-yl)acrylic acid]	8	4560	–
